According to US20210388022A1, “SUBSTITUTED GUANIDINO AND AMIDINO REAGENTS AND THE USE THEREOF FOR PROTEIN DENATURATION” (Waters Technologies Corporation, priority 2020, published 2021):
Where a name gives a salt, the structure may show the parent alone.

Columns and labels:
[1] = molecular target: T1, Orencia® (abatacept), a glycosylated fusion protein (Homo sapiens, UniProt P16410, C103S); test: Denaturation then PNGase F deglycosylation of abatacept, intact protein RPLC-MS; type: biochemical; conditions: 5 mM reagent, short 90° C. incubation, no desalting, PNGase F at 50° C.
T1 construct: modified human IgG1 Fc (hinge-CH2-CH3) fusion partner; purchased Bristol-Myers Squibb
T1 sequence (P16410 with tags, fused parts or gaps limits assumed, stated change not applied): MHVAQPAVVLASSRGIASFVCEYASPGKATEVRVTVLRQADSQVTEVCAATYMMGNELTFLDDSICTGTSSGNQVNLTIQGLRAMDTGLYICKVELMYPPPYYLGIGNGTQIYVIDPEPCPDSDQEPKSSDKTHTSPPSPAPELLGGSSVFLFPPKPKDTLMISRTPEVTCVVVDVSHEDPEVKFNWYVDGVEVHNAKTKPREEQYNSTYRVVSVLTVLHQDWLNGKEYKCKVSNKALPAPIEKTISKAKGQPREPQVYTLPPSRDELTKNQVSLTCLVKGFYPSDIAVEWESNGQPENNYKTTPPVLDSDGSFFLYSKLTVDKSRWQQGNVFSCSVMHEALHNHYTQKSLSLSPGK
Protocol: An Orencia® stock solution (20 mg/mL) was diluted 10 times with water to a concentration of 2 mg/mL, followed by the addition of 10 μL diluted sample into three 1 mL polypropylene tubes. Four (4) μL of 50 mM guanidino reagents, tetramethylguanidine (reagent #1), t-butyl tetramethylguanidine (reagent #2), and trazabicyclodecene (reagent #3), were added into each tube, separately. Finally, 8 μL of 50 mM HEPES, pH 7.9 buffer was transferred into each tube along with 16.4 μL of water.
The contents of each well were subsequently mixed by aspiration. Each sample was then incubated at 90° C., 3 minutes for denaturation and then removed from the heating block to cool at room temperature for 3 minutes. Each denatured glycoprotein sample was treated with 1.6 μL of GlycoWorks Rapid PNGase F at 50° C. for 5 minutes. Aliquots containing 10 μL of each deglycosylated sample were submitted for intact protein analysis, while the remaining 30 μL samples were subjected to RapiFluor-MS™ labeling and released glycan analysis (see details in Example 3).
Additionally, two controls were applied. For a positive control (FIG. 5D), 5 μL of Orencia® stock solution was mixed with 45 μL of 8M guanidine hydrochloride at room temperature, followed by desalting with a Thermo Zeba spin column. The resulting, 10 μL desalted sample was mixed with 8 μL of 50 mM HEPES, pH 7.9, 20.4 μL of water and 1.6 μL of GlycoWorks Rapid PNGase F before being incubated at 50° C. for 5 min to perform deglycosylation. Ten (10) μL of this deglycosylated protein, as well as 10 μL of 2 mg/mL Orencia® solution without denaturation, were tested as positive and negative controls of intact protein analysis. LCMS settings and parameters used for intact protein analysis are listed below in Table 1.

[2] = system: Polyclonal rabbit IgG (rIgG); test: Native fluorescence assay of rabbit IgG denaturation (ex 280 nm, emission ratio 376/360 nm); type: biochemical; conditions: for denaturing power (in words): 5 mM concentration and lower temperatures
Protocol: To determine the effectiveness of the guanidine and amidine reagents from the table of FIG. 8, a native fluorescence assay was established using rabbit IgG. Upon excitation at 280 nm, emission was measured ratiometrically at two wavelengths 376 and 360 nm.
Fluorescence spectra were acquired at an excitation wavelength of 280 nm and emission intensity is reported as a ratio of 376 nm intensity divided by 360 nm intensity. An increase in 1376/1360 denotes a change in the microenvironment of tryptophan residues—specifically, their change from a hydrophobically surrounded native state to a solvent exposed denatured state.
The IgG sample was subjected to concentrations of 0.5, 5, and 50 mM and temperatures of either ambient, 50° C., 70° C., or 90° C. […] Fluorescence was performed with an excitation wavelength of 280 nm.
Polyclonal rabbit IgG (rIgG) was used as a test protein to evaluate the denaturation power of various reagents. The rIgG protein was dissolved and diluted to a concentration of 0.25 mg/mL with water, while also being subjected to the chemical compound of interest and an incubation at either room temperature, 50° C., 70° C., or 90° C. To generate a positive control for complete denaturation, the rIgG sample was subjected to room temperature incubations with guanidine hydrochloride at 0 and up to 8M concentrations. Native fluorescence of the resulting sample was thereafter measured using an excitation wavelength of 280 nm. Emission intensities at 376 and 360 nm were subsequently detected and reported as a ratio as a sensitive measure of rIgG denaturation and a change in the local environment of tryptophan residues.
Fluorescence intensity ratios obtained after incubation with reagent #1, reagent #2, and reagent #3 and either ambient, 50° C., 70° C., or 90° C. temperatures are provided in FIG. 3. Likewise, fluorescence intensity ratios obtained after incubation with reagent #4, reagent #5, and reagent #6 and either ambient, 50° C., 70° C., or 90° C. temperatures are provided in FIG. 4. In all experiments, the substituted guanidine and amidines were titrated to a neutral pH and their protonated ionization states prior to being incubated with protein sample.

Orencia® (abatacept) = molecular target: T2, Orencia® (abatacept) (Homo sapiens, UniProt P16410, C103S); test: N-glycan release and RapiFluor-MS labeling after denaturation, LC-FLR-MS profile; conditions: 5 mM tetramethylguanidine denatured Orencia®, no desalting
T2 construct: modified human IgG1 Fc (hinge-CH2-CH3) fusion partner; purchased Bristol-Myers Squibb
T2 sequence (P16410 with tags, fused parts or gaps limits assumed, stated change not applied): as above
Protocol: In the example of FIG. 6, abatacept was denatured with 5 mM tetramethylguanidine at a 90° C. and incubated at 50° C. with PNGase F. The resulting N-glycosylamines were there derivatized with RapiFluor-MS™ and cleaned up with solid phase extraction using a GlycoWorks RapiFluor-MS™ N-glycan kit (according to manufacturer recommendations; Waters Technologies Corporation, Milford, Mass.). RapiFluor-MS™ labeled N-glycans from this tetramethylguanidinium denatured sample were thereafter profiled by […].
Thirty (30) μL of deglycosylated protein was labeled with 12 μL of RapiFluor-MS™ solution (68.7 mg/mL in DMF) for 5 minutes at room temperature, followed by dilution with 358 μL of acetonitrile for SPE clean-up. The total of 400 μL mixed solution was transferred to a pre-conditioned HILIC μElution SPE plate staged for operation on a positive pressure manifold with 3 psi pressurization. Each sample was loaded onto the plate and then twice washed with 600 μL of 1:9:90 (v/v/v) formic acid/water/acetonitrile. Finally, released glycans were eluted from individual wells with three, 30 μL of 200 mM ammonium acetate in 5% acetonitrile. Eluate was collected and transferred in LC vials for analysis. LC-FLR-MS settings and parameters used in these experiments are listed below in Table 2.

interference in LC-FLR-MS data of RapiFluor-MS labeled N-glycans (Orencia® (abatacept))	SMILES	extent of PNGase F deglycosylation of abatacept after denaturation [1]	denaturing power (in words) [2]	fluorescence intensity ratio of rIgG ([2]; 1% (w/v) RapiGest SF [~24 mM], suggests only partial denaturation)	fluorescence intensity ratio of rIgG ([2]; 8M guanidine, room temperature, native state rIgG approximately 1.3)
–	C1CN=C2NCCCN2C1 [Reagent 3, 1,5,7-triazabicyclo[4.4.0]dec-5-ene]	as extensively deglycosylated as the guanidinium hydrochloride denatured controls	significantly reduced	–	–
–	CCCCCCCCCCCC1(C)OCC(COCCCS(=O)(=O)[O-])O1.[Na+] (stereo not drawn) [RapiGest SF]	–	–	approximately 1.4	–
no significant interferences	CN(C)C(=N)N(C)C [Reagent 1, 1,1,3,3-tetramethylguanidine]	as extensively deglycosylated as the guanidinium hydrochloride denatured controls	significantly reduced	–	–
–	CN(C)C(=NC(C)(C)C)N(C)C [Reagent 2, 2-tert-butyl-1,1,3,3-tetramethylguanidine]	as extensively deglycosylated as the guanidinium hydrochloride denatured controls	significantly reduced	–	–
–	N=C(N)N [guanidine, guanidine hydrochloride, reference compound]	–	–	–	approximately 1.6
